Reference: patent US8962664B2, “Selective glycosidase inhibitors and uses thereof” (Simon Fraser University, priority 2006, dated 2015)
“Also recorded” adds a separate entry of the source.

Key:
[1] = Nine-month repeat dose toxicology study in mice: urinalysis; assay type: in vivo, wild-type JNPL3 mice; settings: mice dosed orally nine months, week 40, pooled urine; F2: NAG-Bt 100 then 1000 mg/kg/day (n = 2); F1: NAG-Bt 100 then NAG-AE 500 mg/kg/day (n = 3)
Experimental: (§1) The toxicological effects of repeated oral administration of (3aR,5R,6S,7R,7aR)-5-(hydroxymethyl)-2-propyl-5,6,7,7a-tetrahydro-3aH-pyrano[3,2-d]thiazole-6,7-diol (NAG-Bt) and (3aR,5R,6S,7R,7aR)-2-(ethylamino)-5-(hydroxymethyl)-5,6,7,7a-tetrahydro-3aH-pyrano[3,2-d]thiazole-6,7-diol (NAG-AE) to wild-type JNPL3 mice over nine months was measured. All animals were obtained from Taconic Farms, Inc. (model number 001638-W-F), and were 10-12 weeks of age at delivery, designated “week 1” of the study. In week 1, the mice were split into three groups: Group E received vehicle alone throughout the study; Group F1 received 100 mg/kg/day NAG-Bt in their food from week 1 to week 15, then were switched to 500 mg/kg/day NAG-AE in their drinking water from week 16 to week 40; Group F2 received 100 mg/kg/day NAG-Bt in their food from week 1 to week 15 then were switched to 1000 mg/kg/day NAG-Bt in their drinking water from week 16 to week 40. […] In week 40, blood and urine samples were collected from animals in each group; the urine samples for animals in each group were pooled prior to analysis, while the blood samples were analyzed individually.

[2] = tested on: tau phosphorylation and NFT formation; assay: Reduction of NFT formation in transgenic P301L JNPL3 mice; assay type: in vivo; settings: oral, Group B NAG-Bt 100 then 1000 mg/kg/day; for protein O-GlcNAc modification in hippocampal brain sections: Group D NAG-AE 500 mg/kg/day weeks 16 to 32, anti-OGlcNAc staining; for tau phosphorylation and NFT formation in hippocampal brain sections: Group D NAG-AE 500 mg/kg/day weeks 16 to 32, anti-phospho Tau-Ser404 staining, vs untreated transgenic Group A
Experimental: Animal Dosing and Tissue Collection. Hemizygous transgenic female JNPL3 mice overexpressing human mutant tau protein (P301L) and wild type control mice were obtained from Taconic Farms, Inc. (model numbers 001638-T-F and 001638-W-F, respectively). The mice were 10-12 weeks of age at delivery, designated “week 1” of the study. In week 1, the mice were split into four groups: Group A (transgenic mice) received vehicle alone throughout the study; Group B (transgenic mice) received 100 mg/kg/day NAG-Bt in their food from week 1 to week 15, then were switched to 1000 mg/kg/day NAG-Bt in their drinking water from week 16 to week 32; Group D (transgenic mice) received vehicle alone from weeks 1 to 15, and then 500 mg/kg/day NAG-AE in their drinking water from weeks 16 to 32; Group E (wild-type) received vehicle alone throughout the study. In week 32, three animals per group were sacrificed and tissues were collected. Transgenic mice and controls were sacrificed using a CO2 chamber. About 45 seconds after they stopped breathing, they were perfused transcardially with 30 mL of 0.9% NaCl buffer followed by 30 mL of 4% paraformaldehyde (w/v in 1× phosphate-buffered saline, PBS, pH 7.4). The brains were then carefully dissected and post-fixed in 4% parformaldehyde before being cryoprotected in 20% sucrose (w/v in 1×PBS) for 24 hours at 4° C.
Cryostat sectioning. The brains were then mounted with optimal cutting temperature (OCT) medium (Tissue Tek) and sectioned sagittally on a Reichert-Jung Cryocut 1800 (Leica) using Feather microtome blades (Tissue Tek) at 50 μm and placed in 1×PBS for further processing. The cryostat temperature was set at −17° C. to −19° C.
Immunohistochemical Staining. Free-floating 50 μm sagittal sections (lateral about 0.6 mm from midline, Mouse Brain in Stereotaxic Coordinates, second edition, by George Paxinos and Leith B. J. Franklin) were permeabilized with 1×PBS containing 0.3% Triton X-100 for 15 min. After blocking with 10% goat serum and 2.5% BSA for 1 h at room temperature, sections were incubated with specific antibodies overnight at 4° C. (primary antibodies: anti-OGlcNAc, Covance; anti-phospho Tau-ser404, Santa Cruz). The sections then were washed three times with 0.3% Triton X-100 in PBS for 15 min each and incubated with specific secondary antibody conjugated with Cy3 or FITC for 1.5 h at room temperature in the dark. After several washes in 1×PBS, sections were mounted on slides and air-dried in the dark. Once dry, Vectashield Mounting Medium (Vector Laboratories, Inc.) was added to the slide before applying coverslips. Coverslips were sealed with clear nail enamel and slides were stored in dark at 4° C. For negative control staining, sections were incubated without primary antibodies.
Imaging. […]

[3] = Nine-month repeat dose toxicology study in mice: hematology (CBC) and serum chemistry; assay type: in vivo, wild-type JNPL3 mice; settings: oral, nine months
Experimental: as §1

[4] = Nine-month repeat dose toxicology study in mice: general observations; assay type: in vivo, wild-type JNPL3 mice; settings: oral, nine months, comparatively high levels
Experimental: as §1

| Compound | Urine Appear [1] | Urine Bilirubin [1] | Urine Blood [1] | Urine Cocci [1] | Urine Color [1] | Urine Creatinine [1] | Urine Epith [1] | Urine Glucose [1] | Urine Ketones [1] | Urine Protein [1] | Urine RBC [1] | Urine Rods [1] | Urine Sp. Grv. [1] | Urine Urobil [1] | Urine WBC [1] | Urine pH [1] | protein O-GlcNAc modification in hippocampal brain sections [2] | tau phosphorylation and NFT formation in hippocampal brain sections [2] | changes in ALT, AST, or sorbitol dehydrogenase (liver toxicity) [3] | toxicological consequences of long-term dosing [4] |
| --- | --- | --- | --- | --- | --- | --- | --- | --- | --- | --- | --- | --- | --- | --- | --- | --- | --- | --- | --- | --- |
| CCNC1=N[C@@H]2[C@@H](O)[C@H](O)[C@@H](CO)O[C@@H]2S1 [NAG-AE, (3aR,5R,6S,7R,7aR)-2-(ethylamino)-5-(hydroxymethyl)-5,6,7,7a-tetrahydro-3aH-pyrano[3,2-d]thiazole-6,7-diol] | Slcloudy | Neg | Neg | Neg | Yellow | 3105.4 | Few | Neg | Neg | Neg | Neg | Neg | 1.039 | Normal | Neg | 6 | dramatically elevated | dramatically reduced; also recorded: significantly decreased | no changes | no serious toxicological consequences |
| CCCC1=N[C@@H]2[C@@H](O)[C@H](O)[C@@H](CO)O[C@@H]2S1 [NAG-Bt, (3aR,5R,6S,7R,7aR)-5-(hydroxymethyl)-2-propyl-5,6,7,7a-tetrahydro-3aH-pyrano[3,2-d]thiazole-6,7-diol] | Clear | Neg | – | Neg | Yellow | 7790.9 | Few | Neg | Neg | Neg | Neg | Neg | 1.05 | Normal | Neg | 5 | dramatically elevated | dramatically reduced; also recorded: significantly decreased | no changes | no serious toxicological consequences |
